Assay results reported in paper PMC10057887, “Analysis of Essential Isoprene Metabolic Pathway Proteins in Variovorax sp. Strain WS11” (Applied and Environmental Microbiology, 2023).

Key:
WS11-AldH [1] = tested on: T1, WS11-AldH; assay: NADH formation at […] nm, substrate inhibition model at high concentrations; type: biochemical, Variovorax sp. WS11; conditions: NAD+ 5 mM, 50 mM sodium carbonate pH 10.0, racemic substrate
T1 construct: isoprene cluster copy, on megaplasmid

AD45-AldH [2] = assay: as above; type: biochemical, Rhodococcus sp. AD45; conditions: NAD+ 5 mM, 50 mM sodium carbonate pH 10.0, racemic substrate
AD45-AldH [3] = assay: NADH formation at […] nm, Michaelis-Menten fit; type: biochemical, Rhodococcus sp. AD45; conditions: NAD+ 5 mM, 50 mM sodium carbonate pH 10.0
WS11-AldH [4] = tested on: T1, WS11-AldH; assay: NADH formation at […] nm, Michaelis-Menten fit; type: biochemical, Variovorax sp. WS11; conditions: NAD+ 5 mM, 50 mM sodium carbonate pH 10.0

| SMILES | Km (WS11-AldH [1]) [µM] | Km (AD45-AldH [2]) [µM] | Km (AD45-AldH [3]) [µM] | Km (WS11-AldH [4]) [µM] | Km (WS11-AldH [4]; predicted Km, not saturated at 10 mM) [µM] |
| --- | --- | --- | --- | --- | --- |
| CCC(C)C=O (racemic) [2-methylbutanal] | 120 | 30 | – | – | – |
| CCCC=O [butanal] | – | – | 80 | 690 | – |
| CCC=O [propanal] | – | – | 570 | – | ~10900 |
